Data as given in patent US12565497B2 (Hoffmann-La Roche Inc., priority 2020, dated 2026).
Counter-ions that a name gives are not always drawn.

What follows are compounds tested against Recombinant human Mat2a (Homo sapiens (Human), UniProt P31153) (assay: Determination of Mat2A activity (384 well absorbance-based assay, Biomol Green)). Settings: 12.5 nM Mat2A, 100 μM ATP and Methionine, 2% DMSO, 120 minutes at RT, absorbance at 635 nm; read-out: MAT2A_LEC IC50 (uM) (Num).
Sequence of Recombinant human Mat2a (P31153 whole entry): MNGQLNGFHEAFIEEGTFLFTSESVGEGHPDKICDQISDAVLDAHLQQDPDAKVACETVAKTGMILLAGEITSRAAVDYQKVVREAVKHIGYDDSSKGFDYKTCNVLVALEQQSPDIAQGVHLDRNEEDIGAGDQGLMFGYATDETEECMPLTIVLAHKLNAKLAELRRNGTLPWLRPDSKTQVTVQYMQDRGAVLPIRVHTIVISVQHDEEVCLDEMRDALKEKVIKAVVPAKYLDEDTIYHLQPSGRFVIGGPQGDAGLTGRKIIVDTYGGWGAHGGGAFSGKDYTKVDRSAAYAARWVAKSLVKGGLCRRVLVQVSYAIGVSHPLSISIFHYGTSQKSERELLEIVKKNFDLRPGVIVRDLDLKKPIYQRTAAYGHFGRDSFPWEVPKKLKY
Format: biochemical
Procedure: Determination of Mat2A Activity
Measurement of Mat2A inhibition is performed in 384 well format absorbance-based assay. Recombinant human Mat2a (12.5 nM) and serial diluted compounds in DMSO (range of concentrations from 10 μM to 508 pM) or controls (DMSO) are incubated for 15 minutes at room temperature (RT) in assay buffer containing 50 mM HEPES pH 7.5, 50 mM KCl, 50 mM MgCl2, 0.01%Tween 20 and 10 mM DTT. The reaction is initiated by the addition of the combined substrates ATP and Methionine, each at a final concentration of 100 μM. Final assay condition are 12.5 nM Mat2A, 100 μM ATP and Methionine Substrates and 2% DMSO. After 120 minutes of incubation at RT, the reaction is stopped by the addition of Biomol Green. The absorbance signal is measured at λ=635 nm with a multiplate reader (BMG Pherastar reader or equivalent) after 30 min of equilibration at RT.
Work on `Cc1cc(-c2nccc3[nH]nc(C4CC4)c23)ccc1S(C)(=O)=O` [Example 1, 3-cyclopropyl-4-(3-methyl-4-(methylsulfonyl)phenyl)-1H-pyrazolo[4,3-c]pyridine] yielded an IC50 of 0.048 µM.
`COc1cc(-c2nccc3[nH]nc(C4CC4)c23)ccc1S(C)(=O)=O` [Example 2, 3-cyclopropyl-4-(3-methoxy-4-(methylsulfonyl)phenyl)-1H-pyrazolo[4,3-c]pyridine] gave an IC50 of 0.37 µM.
Work on `CS(=O)(=O)c1ccc(-c2nccc3[nH]nc(C4CC4)c23)cc1Cl` [Example 3, 4-(3-chloro-4-(methylsulfonyl)phenyl)-3-cyclopropyl-1H-pyrazolo[4,3-c]pyridine] yielded an IC50 of 0.15 µM.
`CS(=O)(=O)c1ccc(-c2nccc3[nH]nc(C4CC4)c23)cc1C(F)(F)F` [Example 4, 3-cyclopropyl-4-(4-(methylsulfonyl)-3-(trifluoromethyl)phenyl)-1H-pyrazolo[4,3-c]pyridine] showed an IC50 of 0.24 µM.
For `Cc1cc(-c2nccc3[nH]nc(C4CC4)c23)ccc1S(=O)(=O)N(C)C` [Example 5, 4-(3-cyclopropyl-1H-pyrazolo[4,3-c]pyridin-4-yl)-N,N,2-trimethylbenzenesulfonamide], the IC50 was 0.17 µM.
Compound `COc1ncc2[nH]nc(C3CC3)c2c1-c1ccc(S(C)(=O)=O)cc1` [Example 6, 3-cyclopropyl-5-methoxy-4-(4-methylsulfonylphenyl)-1H-pyrazolo[3,4-c]pyridine] has an IC50 of 0.17 µM.
Work on `Cc1cc(-c2nccc3[nH]nc(C4CC4)c23)ccc1S(=O)(=O)C1CC1` [Example 7, 3-cyclopropyl-4-(4-(cyclopropylsulfonyl)-3-methylphenyl)-1H-pyrazolo[4,3-c]pyridine] yielded an IC50 of 0.046 µM.
With `O=S(=O)(c1ccc(-c2nccc3[nH]nc(C4CC4)c23)cc1Cl)C1CC1` [Example 8, 4-(3-chloro-4-(cyclopropylsulfonyl)phenyl)-3-cyclopropyl-1H-pyrazolo[4,3-c]pyridine] the IC50 was 0.37 µM.
For `CN(C)S(=O)(=O)c1ccc(-c2nccc3[nH]nc(C4CC4)c23)cc1Cl` [Example 9, 2-chloro-4-(3-cyclopropyl-1H-pyrazolo[4,3-c]pyridin-4-yl)-N,N-dimethylbenzenesulfonamide], the IC50 was 0.24 µM.
Work on `CS(=O)(=O)c1ccc(-c2nccc3[nH]nc(C(F)(F)F)c23)cc1` [Example 11, 4-(4-(methylsulfonyl)phenyl)-3-(trifluoromethyl)-1H-pyrazolo[4,3-c]pyridine] yielded an IC50 of 0.28 µM.
`CS(=O)(=O)c1ccc(-c2nccc3[nH]nc(C4CC4)c23)cc1C(F)F` [Example 12, 3-cyclopropyl-4-(3-(difluoromethyl)-4-(methylsulfonyl)phenyl)-1H-pyrazolo[4,3-c]pyridine] was tested, and the IC50 was 0.22 µM.
`CS(=O)(=O)c1ccc(-c2nccc3[nH]nc(C4CC4)c23)cc1CF` [Example 13, 3-cyclopropyl-4-(3-(fluoromethyl)-4-(methylsulfonyl)phenyl)-1H-pyrazolo[4,3-c]pyridine] showed an IC50 of 0.11 µM.
`Cc1cc(-c2nccc3[nH]cc(C4CC4)c23)ccc1S(C)(=O)=O` [Example 14, 3-cyclopropyl-4-(3-methyl-4-(methylsulfonyl)phenyl)-1H-pyrrolo[3,2-c]pyridine] was tested, and the IC50 was 0.099 µM.
`Cc1cc(-c2nccc3[nH]nc(C4CC4)c23)ccc1S(=O)(=O)C1COC1` [Example 15, 3-cyclopropyl-4-(3-methyl-4-(oxetan-3-ylsulfonyl)phenyl)-1H-pyrazolo[4,3-c]pyridine] was tested, and the IC50 was 0.27 µM.
In the case of `Cc1cc(-c2c(C#N)ncc3[nH]nc(C4CC4)c23)ccc1S(C)(=O)=O` [Example 16, 3-cyclopropyl-4-(3-methyl-4-(methylsulfonyl)phenyl)-1H-pyrazolo[3,4-c]pyridine-5-carbonitrile], the IC50 was < 0.013 µM.
With `Cc1cc(-c2nccc3[nH]nc(C(C)(F)F)c23)ccc1S(C)(=O)=O` [Example 17, 3-(1,1-difluoroethyl)-4-(3-methyl-4-(methylsulfonyl)phenyl)-1H-pyrazolo[4,3-c]pyridine] the IC50 was < 0.013 µM.
In the case of `Cc1cc(-c2nccc3[nH]nc(C(F)F)c23)ccc1S(C)(=O)=O` [Example 18, 3-(difluoromethyl)-4-(3-methyl-4-methylsulfonylphenyl)-1H-pyraxolo[4,3-c]pyridine], the IC50 was 0.095 µM.
With `Cc1cc(-c2nccc3[nH]nc(C(C)C)c23)ccc1S(C)(=O)=O` [Example 19, 3-isopropyl-4-(3-methyl-4-(methylsulfonyl)phenyl)-1H-pyrazolo[4,3-c]pyridine] the IC50 was 0.042 µM.
In the case of `Cc1cc(-c2nccc3[nH]nc(C4CC4)c23)c(F)cc1S(C)(=O)=O` [Example 21, 3-cyclopropyl-4-(2-fluoro-5-methyl-4-methylsulfonyl-phenyl)-1H-pyrazolo[4,3-c]pyridine], the IC50 was 0.056 µM.
In the case of `Cc1cc(S(C)(=O)=O)c(C)cc1-c1nccc2[nH]nc(C3CC3)c12` [Example 22, 3-cyclopropyl-4-(2,5-dimethyl-4-methylsulfonyl-phenyl)-1H-pyrazolo[4,3-c]pyridine hydrochloride], the IC50 was 0.15 µM.
With `Cc1cc(-c2nccc3[nH]nc(C4CC4)c23)ccc1[S+](C)[O-]` (stereo not drawn) [Example 23, 3-cyclopropyl-4-(3-methyl-4-methylsulfmyl-phenyl)-1H-pyrazolo[4,3-c]pyridine hydrochloride] the IC50 was 0.083 µM.
`COc1ncc2[nH]nc(C3CC3)c2c1-c1ccc(S(C)(=O)=O)c(C)c1` [Example 24, 3-cyclopropyl-5-methoxy-4-(3-methyl-4-(methylsulfonyl)phenyl)-1H-pyrazolo[3,4-c]pyridine] was tested, and the IC50 was < 0.013 µM.
`Cc1cc(-c2nccc3[nH]nc(OC(F)F)c23)ccc1S(=O)(=O)C(F)F` [Example 25, 3-(difluoromethoxy)-4-[4-(difluoromethylsulfonyl)-3-methyl-phenyl]-1H-pyrazolo[4,3-c]pyridine] was tested, and the IC50 was 0.013 µM.
For `Cc1cc(-c2nccc3[nH]nc(OC(F)F)c23)ccc1S(=O)(=O)C1CC1` [Example 26, 4-(4-cyclopropylsulfonyl-3-methyl-phenyl)-3-(difluoromethoxy)-1H-pyrazolo[4,3-c]pyridine], the IC50 was < 0.013 µM.
For `CCS(=O)(=O)c1ccc(-c2nccc3[nH]nc(OC(F)F)c23)cc1C` [Example 27, 3-(difluoromethoxy)-4-(4-ethylsulfonyl-3-methyl-phenyl)-1H-pyrazolo[4,3-c]pyridine], the IC50 was < 0.013 µM.
In the case of `Cc1cc(-c2nccc3[nH]nc(C4COC4)c23)ccc1S(C)(=O)=O` [Example 28, 4-(3-methyl-4-methylsulfonyl-phenyl)-3-(oxetan-3-yl)-1H-pyrazolo[4,3-c]pyridine], the IC50 was 0.51 µM.
`Cc1cc(-c2nccc3[nH]nc(OC(F)F)c23)ccc1S(=O)(=O)CC1CC1` [Example 29, 4-[4-(cyclopropylmethylsulfonyl)-3-methyl-phenyl]-3-(difluoromethoxy)-1H-pyrazolo[4,3-c]pyridine] showed an IC50 of 0.29 µM.
Compound `CCCS(=O)(=O)c1ccc(-c2nccc3[nH]nc(OC(F)F)c23)cc1C` [Example 30] has an IC50 of 0.057 µM.
Compound `CS(=O)(=O)c1ccc(-c2nccc3[nH]nc(OC(F)F)c23)cc1C(F)F` [Example 31] has an IC50 of 0.033 µM.
`Cc1cc(-c2nccc3[nH]nc(OC(F)F)c23)ccc1S(=O)(=O)C(C)C` [Example 32] was tested, and the IC50 was < 0.013 µM.
`CNS(=O)(=O)c1ccc(-c2nccc3[nH]nc(OC(F)F)c23)cc1C` [Example 33, 4-[3-(difluoromethoxy)-1H-pyrazolo[4,3-c]pyridin-4-yl]-N,2-dimethyl-benzenesulfonamide] showed an IC50 of 0.029 µM.
In the case of `Cc1cc(-c2nc(Cl)cc3[nH]nc(C4CC4)c23)ccc1S(C)(=O)=O` [Example 34, 6-chloro-3-cyclopropyl-4-(3-methyl-4-methylsulfonylphenyl)-1H-pyrazolo[4,3-c]pyridine], the IC50 was < 0.013 µM.
For `Cc1cc(-c2nccc3[nH]nc(OC(F)F)c23)ccc1S(=O)(=O)C1COC1` [Example 35, 3-(difluoromethoxy)-4-[3-methyl-4-(oxetan-3-ylsulfonyl)phenyl]-1H-pyrazolo[4,3-c]pyridine], the IC50 was 0.12 µM.
`Cc1cc(-c2nccc3[nH]nc(OC(F)F)c23)ccc1S(=O)(=O)CCO` [Example 36, 2-[4-[3-(difluoromethoxy)-1H-pyrazolo[4,3-c]pyridin-4-yl]-2-methyl-phenyl]sulfonylethanol] gave an IC50 of 0.051 µM.
`Cc1cc(-c2nccc3[nH]nc(OC(F)F)c23)ccc1S(=O)(=O)C1(C)CC1` [Example 37, 3-(difluoromethoxy)-4-[3-methyl-4-(1-methylcyclopropyl)sulfonyl-phenyl]-1H-pyrazolo[4,3-c]pyridine] gave an IC50 of 0.1 µM.
`COCS(=O)(=O)c1ccc(-c2nccc3[nH]nc(OC(F)F)c23)cc1C` [Example 38, 3-(difluoromethoxy)-4-[4-(methoxymethylsulfonyl)-3-methyl-phenyl]-1H-pyrazolo[4,3-c]pyridine] gave an IC50 of 0.021 µM.
In the case of `COc1ncc2[nH]nc(C(F)(F)F)c2c1-c1ccc(S(C)(=O)=O)c(C)c1` [Example 39, 5-methoxy-4-(3-methyl-4-(methylsulfonyl)phenyl)-3-(trifluoromethyl)-1H-pyrazolo[3,4-c]pyridine], the IC50 was < 0.013 µM.
In the case of `Cc1cc(-c2nccc3[nH]cc(C(F)(F)F)c23)ccc1S(C)(=O)=O` [Example 40, 4-(3-methyl-4-(methylsulfonyl)phenyl)-3-(trifluoromethyl)-1H-pyrrolo[3,2-c]pyridine], the IC50 was 0.029 µM.
In the case of `COCc1ncc2[nH]nc(C3CC3)c2c1-c1ccc(S(C)(=O)=O)c(C)c1` [Example 41, 3-cyclopropyl-5-(methoxymethyl)-4-(3-methyl-4-(methylsulfonyl)phenyl)-1H-pyrazolo[3,4-c]pyridine], the IC50 was 0.14 µM.
